Patent US12275745B2, “Therapeutic compounds and methods of use” (Genentech, Inc., priority 2021, dated 2025)

Legend:
[1] = target: TEAD1 (Homo sapiens, UniProt P28347); experiment: TR-FRET (Lipid HTRF) TEAD lipid pocket probe displacement assay, TEAD1; format: binding; settings: His-tagged TEAD1, biotinylated lipid pocket probe, 4 hours
Experimental: (§1) His-tagged TEAD proteins are pre-incubated with TEAD project compounds for 30 minutes or 4 hours at room temperature. Biotinylated lipid pocket probes are then added to the TEAD/Compound mixture and incubated for 60 minutes at room temperature. The lipid pocket probe competes with the test compound for the TEAD lipid pocket until equilibrium is reached. After 60 minutes, Europium labelled anti-His (Perkin Elmer #AD0110) and XL665 labelled streptavidin (CIS Bio 610SAXAC) are added to the TEAD/test compound/lipid pocket mixture and incubated for 30 minutes or 4 hours. TR-FRET values are then measured using an EnVision multi-label plate reader (Perkin Elmer Cat #2104-001 0A.) If the lipid pocket probe binds to TEAD as expected, a TR-FRET signal results from the proximity of anti-His Eu and XL665. If a TEAD lipid pocket binder such as binds and displaces the lipid pocket probe, the disruption of the TEAD:probe interaction results in a decrease in TR-FRET signal. The potency of compounds as TEAD lipid pocket binders is determined by IC50 value generated using a non-linear 4 parameter curve fit.

[2] = target: TEAD2 (Homo sapiens, UniProt Q15562); experiment: biochemical;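 note: TR-FRET competition assay with His-tagged TEAD protein and a biotinylated lipid pocket probe, where probe displacement by compound lowers the signal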
Experimental: as §1

[3] = target: TEAD3 (Homo sapiens, UniProt Q99594); experiment: TR-FRET (Lipid HTRF) TEAD lipid pocket probe displacement assay, TEAD3; format: binding; settings: His-tagged TEAD3, biotinylated lipid pocket probe, 4 hours
[4] = target: TEAD4 (Homo sapiens, UniProt Q15561); experiment: TR-FRET (Lipid HTRF) TEAD lipid pocket probe displacement assay, TEAD4; format: binding; settings: His-tagged TEAD4, biotinylated lipid pocket probe, 4 hours
Sequence of TEAD4 (Q15561 whole entry, species assumed): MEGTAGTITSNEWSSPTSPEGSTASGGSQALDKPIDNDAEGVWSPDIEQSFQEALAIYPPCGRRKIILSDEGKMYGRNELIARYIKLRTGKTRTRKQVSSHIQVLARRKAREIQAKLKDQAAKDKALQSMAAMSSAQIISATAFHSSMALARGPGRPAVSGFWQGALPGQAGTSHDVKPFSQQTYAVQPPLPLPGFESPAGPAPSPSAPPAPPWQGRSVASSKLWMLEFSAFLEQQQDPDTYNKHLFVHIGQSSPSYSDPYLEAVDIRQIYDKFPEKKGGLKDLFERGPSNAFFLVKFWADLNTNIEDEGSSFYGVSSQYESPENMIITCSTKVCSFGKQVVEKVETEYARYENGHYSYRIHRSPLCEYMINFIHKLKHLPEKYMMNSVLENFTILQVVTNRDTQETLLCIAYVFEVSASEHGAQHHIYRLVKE
Experimental: as §1

Sequence of TEAD2 (Q15562 whole entry, species assumed): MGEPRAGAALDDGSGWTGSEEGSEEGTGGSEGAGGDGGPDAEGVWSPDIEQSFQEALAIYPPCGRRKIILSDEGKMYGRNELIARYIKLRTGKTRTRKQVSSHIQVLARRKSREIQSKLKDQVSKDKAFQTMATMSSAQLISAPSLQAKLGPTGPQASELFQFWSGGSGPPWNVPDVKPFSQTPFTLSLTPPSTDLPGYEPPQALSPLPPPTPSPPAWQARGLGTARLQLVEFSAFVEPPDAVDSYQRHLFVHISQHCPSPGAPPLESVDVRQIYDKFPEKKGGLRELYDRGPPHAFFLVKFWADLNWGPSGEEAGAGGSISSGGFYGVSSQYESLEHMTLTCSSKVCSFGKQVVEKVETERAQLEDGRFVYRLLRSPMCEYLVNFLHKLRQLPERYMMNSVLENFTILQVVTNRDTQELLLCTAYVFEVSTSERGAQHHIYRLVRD
Sequence of TEAD3 (Q99594 whole entry, species assumed): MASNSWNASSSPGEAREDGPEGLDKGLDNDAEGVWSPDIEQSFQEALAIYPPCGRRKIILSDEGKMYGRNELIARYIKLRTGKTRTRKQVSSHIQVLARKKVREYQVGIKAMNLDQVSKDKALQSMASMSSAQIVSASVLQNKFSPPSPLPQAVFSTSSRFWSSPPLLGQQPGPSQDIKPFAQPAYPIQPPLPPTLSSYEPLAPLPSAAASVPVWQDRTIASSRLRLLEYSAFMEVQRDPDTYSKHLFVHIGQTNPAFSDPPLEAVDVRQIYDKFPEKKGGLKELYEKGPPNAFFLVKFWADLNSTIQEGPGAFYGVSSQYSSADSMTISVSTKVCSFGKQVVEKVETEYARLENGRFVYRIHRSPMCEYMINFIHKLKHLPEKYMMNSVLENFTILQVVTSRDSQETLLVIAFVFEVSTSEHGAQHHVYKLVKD
Sequence of TEAD1 (P28347 whole entry, species assumed): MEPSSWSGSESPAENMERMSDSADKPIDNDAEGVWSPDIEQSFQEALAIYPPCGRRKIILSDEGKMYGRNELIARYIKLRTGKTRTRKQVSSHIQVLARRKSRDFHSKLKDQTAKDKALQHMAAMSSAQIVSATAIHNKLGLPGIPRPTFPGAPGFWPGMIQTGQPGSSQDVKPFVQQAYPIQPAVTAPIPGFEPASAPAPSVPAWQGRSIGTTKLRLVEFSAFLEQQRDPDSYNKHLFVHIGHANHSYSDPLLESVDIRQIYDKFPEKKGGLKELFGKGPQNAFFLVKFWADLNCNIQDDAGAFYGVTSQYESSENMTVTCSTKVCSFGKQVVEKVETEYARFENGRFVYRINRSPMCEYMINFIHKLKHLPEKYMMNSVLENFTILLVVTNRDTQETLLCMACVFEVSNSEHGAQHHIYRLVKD

| SMILES | IC50 [1] [nM] | IC50 [2] [nM] | IC50 [3] [nM] | IC50 [4] [nM] |
| --- | --- | --- | --- | --- |
| C=CC(=O)NCc1cc(-c2ccc(OC(F)(F)F)cc2)c2nccnc2c1[C@@H](C)O (single isomer, unassigned) [Compound 82] | 69 | 15 | 1800 | 240 |
| C=CC(=O)NCc1cc(-c2ccc(OC(F)(F)F)cc2)c2nccnc2c1[C@H](C)O (single isomer, unassigned) [Compound 83] | 44 | 6 | 190 | 95 |
| C=CC(=O)NCc1cc(-c2ccc(OC(F)(F)F)cc2)c2c(c1[C@H](O)[C@H](C)O)CCO2 (single isomer, unassigned) [Compound 89] | 160 | 34 | 4800 | 150 |
| C=CC(=O)NCc1cc(-c2ccc(OC(F)(F)F)cc2)c2ncoc2c1[C@@H](O)CO (single isomer, unassigned) [Compound 106] | 180 | 24 | 1000 | 180 |
| C=CC(=O)N(C)Cc1cc(-c2ccc(OC(F)(F)F)cc2)c2ncoc2c1[C@H](O)CO (single isomer, unassigned) [Compound 107] | 100 | 20 | 780 | 36 |
| C=CC(=O)N(C)Cc1cc(-c2ccc(OC(F)(F)F)cc2)c2ncoc2c1[C@@H](O)CO (single isomer, unassigned) [Compound 108] | 130 | 76 | 47 | 24 |
| C=CC(=O)NCc1cc(-c2ccc(C(F)(F)F)cc2)c2ncoc2c1[C@H](O)CO (single isomer, unassigned) [Compound 109] | 150 | 58 | 71 | 170 |
| C=CC(=O)NCc1cc(-c2ccc(OC(F)(F)F)cc2)c2ncn(C)c2c1[C@@H](C)O (single isomer, unassigned) [Compound 138] | 60 | 10 | 3600 | 92 |

More lines, now with the values ahead:

| IC50 [1] [nM] | IC50 [2] [nM] | IC50 [3] [nM] | IC50 [4] [nM] | SMILES |
| --- | --- | --- | --- | --- |
| 20 | 4.4 | 240 | 7.2 | C=CC(=O)N(C)Cc1cc(-c2ccc(OC(F)(F)F)cc2)c2c(c1[C@H](O)CO)CCO2 (single isomer, unassigned) [Compound 55] |
| 48 | 35 | 99 | 13 | C=CC(=O)N(C)Cc1cc(-c2ccc(OC(F)(F)F)cc2)c2c(c1[C@@H](O)CO)CCO2 (single isomer, unassigned) [Compound 56] |
| 170 | 29 | 400 | 63 | C=CC(=O)NCc1cc(-c2ccc(OC(F)(F)F)cc2)c2c(c1[C@@H](O)[C@@H](C)O)CCO2 (single isomer, unassigned) [Compound 90] |
| 140 | 34 | 11000 | 63 | C=CC(=O)NCc1cc(-c2ccc(OC(F)(F)F)cc2)c2c(c1[C@H](O)CC#N)CCO2 (single isomer, unassigned) [Compound 91] |
| 760 | 16 | 1600 | 340 | C=CC(=O)NCc1cc(-c2ccc(OC(F)(F)F)cc2)c2c(c1[C@@H](O)CC#N)CCO2 (single isomer, unassigned) [Compound 92] |
| 130 | 30 | 74 | 90 | C=CC(=O)NCc1cc(-c2ccc(OC(F)(F)F)cc2)c2ncoc2c1[C@H](O)CO (single isomer, unassigned) [Compound 105] |
| 140 | 47 | 970 | 260 | C=CC(=O)NCc1cc(-c2ccc(C(F)(F)F)cc2)c2ncoc2c1[C@@H](O)CO (single isomer, unassigned) [Compound 110] |
| 160 | 6.8 | 380 | 100 | C=CC(=O)NCc1cc(-c2ccc(OC(F)(F)F)cc2)c2ncn(C)c2c1[C@H](C)O (single isomer, unassigned) [Compound 139] |
